Data taken from US20230042830A1, “COMPOSITIONS AND METHODS FOR GENERATION OF RETINAL GANGLION CELLS FROM INDUCIBLE PLURIPOTENT STEM CELLS FOR THE TREATMENT OF PROGRESSIVE OPTIC NEUROPATHIES, INCLUDING GLAUCOMA” (THE TRUSTEES OF THE UNIVERSITY OF PENNSYLVANIA, priority 2021, published 2023).

What was measured:
[1] = tested on: iPSC-RGC cultures; assay: Flow cytometry analysis of iPSC-RGC cultures (CD90/Thy-1, Brn-3b, RBPMS, SNCG); assay type: cell-based, human; details: flow cytometry after 35 days in vitro, three independent iPSC lines
Procedure: iPSCs were cultured on 0.1% gelatinized plates containing iMEFs in 37° C. 5% O2 and 5% CO2 conditions. Cells were maintained until approximately 75% confluence, then feeder cells were depleted and approximately 1.5×10^6 iPSCs were seeded in one well of 6-well tissue culture dish (Corning) coated with 1:100 diluted growth factor reduced Matrigel. iPSCs were maintained in iPSC: MEF-conditioned medium (80:20)+20 ng/mL of bFGF and 5 ng/ml of stable bFGF. The MEF-conditioned media was prepared by plating iMEFs onto 0.1% gelatin at a density of 20,000 cells/cm^2 in iPSC media. […] On day 16 of differentiation, seven conditions—1) L, 2) X, 3) 1.5 μM CHIR99021 (CHIR) (Wnt agonist; SelleckChem), 4) LX, 5) LSB, 6) LSB-CHIR and 7) LSBX were evaluated for RPC and RGC markers on day 23. Cultures from the following four conditions—1) LSBX, 2) LSB, 3) LX, and 4) 1.5 μM CHIR99021 (CHIR) (Wnt agonist; SelleckChem) were further evaluated at 35. An additional five conditions—1) L only, 2) X only, 3) LSB, 4) LSBX, and 5) LSB-CHIR were evaluated for RPC markers on day 23 to evaluate for transcript expression differences across different conditions in RPCs. […]

[2] = tested on: sonic hedgehog; assay: RGC induction with SHH or SAG; assay type: cell-based, human; details: 100 nM, day 22-23
Procedure: Prior to RGC differentiation, medium was changed daily using RGC induction media containing SHH (sonic hedgehog) (250 ng/mL; R&D systems) or SAG (100 nM; Tocris), SHH was replaced with SAG after establishing equal competence, FGF8 (100 ng/mL, R&D systems) for two days. For RGC differentiation (see FIGS. 1D and 2B for kinetics), on day 24, cells were manually crossed into small clusters with Leibovitz's medium containing […] Glucose using the crosshatching technique as previously described (Espuny-Camacho et al., 2013), then replated at a density of 1.0×10^5 cells/well of 6-well plate coated with 1:100 diluted growth factor reduced Matrigel in RGCs induction media containing: Follistatin 300 (100 ng/ml), cyclopamine (0.5 uM, Tocris), DAPT (3 uM, Tocris), and 4.2 μM Rock inhibitor (Y27632). Media was changed 24 h post-plating with RGC induction media containing: Follistatin 300 (100 ng/ml) and DAPT (3 uM), daily for two days. From day 27, media was changed to RGC induction media containing: DAPT (3 uM, Tocris), 10 μM Rock inhibitor (Y27632), forskolin (5 uM; SelleckChem), cAMP (400 uM; Sigma-Aldrich), BDNF (40 ng/mL; R&D systems), NT4 (5 ng/mL; R&D systems), and CNTF (10 ng/mL; R&D systems). Media was changed every 2-3 days until day 36. […]

[3] = tested on: SIRT1 pathway; details: mouse models of optic neuritis and optic nerve trauma; cited from earlier work

Cc1c[nH]c(-c2cnc(NCCNc3ccc(C#N)cn3)nc2-c2ccc(Cl)cc2Cl)n1 [CHIR, CHIR99021]
Thy-1 (CD90) positive cells [1]: 22.5%

CNC1CCC(N(Cc2cccc(-c3ccncc3)c2)C(=O)c2sc3ccccc3c2Cl)CC1 (stereo not drawn) [SAG]
RGC induction compared with SHH [2]: no difference in RGC induction changes

Oc1ccc(C=Cc2cc(O)cc(O)c2)cc1 [resveratrol]
visual function and RGC survival [3]: preserves visual function and RGC survival
